Test results: article PMC8394033, “Cytocidal Antitumor Effects against Human Ovarian Cancer Cells Induced by B-Lactam Steroid Alkylators with Targeted Activity against Poly (ADP-Ribose) Polymerase (PARP) Enzymes in a Cell-Free Assay” (Biomedicines, 2021)
Where “and” joins values, the source holds several entries; their conditions need not be identical. Identical values can stand only once. Like-named read-outs stand apart in the source and are kept apart here. Marks after values point to notes of the source that are not given here.

Key:
[1] = system: OVCAR-3; conditions: for GI50: read-out: GI50 ±SEM (50% inhibition of cell growth, cytostatic); for IC50: read-out: IC50 ±SEM (50% cytocidal effect, cytotoxic)
[2] = system: UWB1.289; test: Sister chromatid exchanges (SCEs) assay, genotoxicity and PRI
[3] = system: PARP1 mRNA (PARP1/ACTB); format: cell-based, human
[4] = system: PHA-stimulated PBMCs (T-lymphocytes) from healthy donors; test: Sister chromatid exchanges (SCEs) assay, genotoxicity and PRI
[5] = system: SKOV-3; conditions: for GI50: read-out: GI50 ±SEM (50% inhibition of cell growth, cytostatic); for IC50: read-out: IC50 ±SEM (50% cytocidal effect, cytotoxic)
[6] = system: UWB1.289; conditions: for GI50: read-out: GI50 ±SEM (50% inhibition of cell growth, cytostatic); for IC50: read-out: IC50 ±SEM (50% cytocidal effect, cytotoxic)
[7] = system: MRC-5; test: MTT assay, selectivity on normal lung fibroblasts; conditions: for GI50: Homo sapiens, MRC5, 48 h, read-out: GI50 ±SEM (50% inhibition of cell growth, cytostatic)
[8] = MTT assay, selectivity on normal lung fibroblasts; conditions: human, MRC-5 normal lung fibroblasts
[9] = system: PHA-stimulated PBMCs (T-lymphocytes) from healthy donors; conditions: human
[10] = system: UWB1.289; conditions: human
[11] = system: UWB1.289; conditions: human; remark: listed apart in the source
[12] = system: OVCAR-3; conditions: human
[13] = in vitro; conditions: human
[14] = system: SKOV-3; conditions: human
[15] = system: PARP2 mRNA (PARP2/ACTB); test: PARP2 mRNA expression analysis by qRT-PCR; format: cell-based, human; conditions: UWB1.289, vs untreated cells, 20 and 40 μΜ, 72 h

## NC(=O)c1cccc(N)c1 [3-AB, 3-Aminobenzamide, reference compound]
[1]; OVCAR-3, 48 h treatment, MTT
  TGI ±SEM (100% cell growth inhibition, cytostatic): >100 µM
  GI50: > 100 µM
  IC50: > 100 µM
[2]; UWB1.289, 3 μM
  SCE/Chromosome ± SEM: 0.43 ± 0.025
  SCEs/Metaphase ± SEM: 31.91 ± 1.88
[3]
  alterations in the PARP1/ACTB mRNA cellular content: non-significant alterations
[4]; mean of 5 donors' PBMCs, 3 μM
  Mean PRI ± SD: 2.696 ± 0.12
  Mean SCE/Chromosome ± SD: 0.30 ± 0.03
  Mean SCEs/metaphase Mean ± SD: 14.03 ± 1.24
[5]; SKOV-3, 48 h treatment, MTT
  TGI ±SEM (100% cell growth inhibition, cytostatic): >100 µM
  GI50: > 100 µM
  IC50: > 100 µM
[6]; UWB1.289, 48 h treatment, MTT
  TGI ±SEM (100% cell growth inhibition, cytostatic): >100 µM
  GI50: 92 ± 13 µM
  IC50: > 100 µM
[7]
  GI50: > 100 µM
[7]; MRC-5 normal human lung fibroblasts, 48 h treatment, MTT
  TGI ±SEM (100% cell growth inhibition, cytostatic): >100 µM
[8]
  IC50 at 48 h: > 100 µM

## C[C@]12CC[C@H](OC(=O)CCOc3ccc(N(CCCl)CCCl)cc3)CC1=CC(=O)NC1C2CC[C@]2(C)C(=O)CCC12 (stereo partly shown) [ASA-A, 7a,9a-dimethyl-2,10-dioxo-1,2,4,5,6,7,7a,7b, 8,9,9a,10,11,12,12a,12b-hexadecahydrobenzo[d]indeno [4,5-b]azepin-5-yl 3-(4-(bis(2-chloroethyl)amino)phenoxy)propanoate]
[1]
  TGI ±SEM (100% cell growth inhibition, cytostatic): 38 ± 2.95 µM
  GI50: 29 ± 3.04 µM
[2]
  PRI (Proliferation Rate Index): 1.88 *
[9]
  Mean SCE/Chromosome ± SD: 0.66 ± 0.04
  Mean SCEs/metaphase Mean ± SD: 30.28 ± 2.03
[4]
  Mean PRI ± SD: 2.18 ± 0.13
  PRI (Proliferation Rate Index): 2.13 and 2.21 and 1.98 and 2.32 and 2.26
[10]
  IC50: 71 ± 7.01 µM
[11]
  SCE/Chromosome ± SEM: 1.0 ± 0.054
  SCEs/Metaphase ± SEM: 73.78 ± 4.03
[5]
  TGI ±SEM (100% cell growth inhibition, cytostatic): 33 ± 2.79 µM
  GI50: 15 ± 1.26 µM
[6]
  TGI ±SEM (100% cell growth inhibition, cytostatic): 52 ± 4.61 µM
  GI50: 19 ± 1.83 µM
[12]
  IC50: 47 ± 4.82 µM
[13]
  IC50: > 100 µM
[14]
  IC50: 67 ± 7.11 µM
[7]
  TGI ±SEM (100% cell growth inhibition, cytostatic): >100 µM
  GI50: 69 ± 7.13 µM

## CC12CCC3C(NC(=O)C=C4CC(OC(=O)CCOc5ccc(N(CCCl)CCCl)cc5)CCC43C)C1CCC(=O)N2 (stereo not shown) [ASA-B, 11a,13a-dimethyl-2,6-dioxo-2,3,4,4a,4b,5,6,8,9,10,11,11a,11b,12,13,13a-hexadecahydro-1H-benzo[4,5]azepino [2,3-f]quinolin-9-yl 3-(4-(bis(2-chloroethyl)amino)phenoxy)propanoate]
[1]
  TGI ±SEM (100% cell growth inhibition, cytostatic): 81 ± 7.82 µM
  GI50: 44 ± 5.04 µM
[2]
  PRI (Proliferation Rate Index): 1.77 *
[9]
  Mean SCE/Chromosome ± SD: 0.86 ± 0.06
  Mean SCEs/metaphase Mean ± SD: 39.54 ± 2.84
[4]
  Mean PRI ± SD: 2.23 ± 0.12
  PRI (Proliferation Rate Index): 2.30 and 2.18 and 2.04 and 2.34 and 2.29
[10]
  IC50: 54 ± 5.11 µM
[11]
  SCE/Chromosome ± SEM: 1.17 ± 0.07
  SCEs/Metaphase ± SEM: 86.76 ± 4.97
[5]
  TGI ±SEM (100% cell growth inhibition, cytostatic): 51 ± 4.46 µM
  GI50: 24 ± 2.42 µM
[15]
  increase of the PARP2/ACTB mRNA ratio: 140- to150 fold
[6]
  TGI ±SEM (100% cell growth inhibition, cytostatic): 35 ± 3.63 µM
  GI50: 10 ± 0.81 µM
[12]
  IC50: > 100 µM
[13]
  IC50: > 100 µM
[14]
  IC50: 98 ± 8.97 µM
[7]
  TGI ±SEM (100% cell growth inhibition, cytostatic): >100 µM
  GI50: 86 ± 9.95 µM

## CC(C)CCCC(C)[C@H]1CCC2C3NC(=O)C=C4C[C@@H](OC(=O)CCOc5ccc(N(CCCl)CCCl)cc5)CC[C@]4(C)C3CC[C@@]21C (stereo partly drawn) [ASA-C, 7a,9a-dimethyl-10-((R)-6-methylheptan-2-yl)-2-oxo-1,2,4,5,6,7,7a,7b,8,9,9a,10,11,12,12a,12b-hexadecahydrobenzo[d]indeno[4,5-b]azepin-5-yl 3-(4-(bis(2-chloroethyl)amino)phenoxy)propanoate]
[1]
  TGI ±SEM (100% cell growth inhibition, cytostatic): >100 µM
  GI50: > 100 µM
[2]
  PRI (Proliferation Rate Index): 2.15
[9]
  Mean SCE/Chromosome ± SD: 0.19 ± 0.08
  Mean SCEs/metaphase Mean ± SD: 8.81 ± 0.4
[4]
  Mean PRI ± SD: 2.612 ± 0.13
  PRI (Proliferation Rate Index): 2.48 and 2.72 and 2.47 and 2.65 and 2.74
[10]
  IC50: > 100 µM
[11]
  SCE/Chromosome ± SEM: 0.33 ± 0.02
  SCEs/Metaphase ± SEM: 24.53 ± 1.72
[5]
  TGI ±SEM (100% cell growth inhibition, cytostatic): >100 µM
  GI50: > 100 µM
[6]
  TGI ±SEM (100% cell growth inhibition, cytostatic): >100 µM
  GI50: 73 ± 7.58 µM
[12]
  IC50: > 100 µM
[13]
  IC50: > 100 µM
[14]
  IC50: > 100 µM
[7]
  TGI ±SEM (100% cell growth inhibition, cytostatic): >100 µM
  GI50: > 100 µM

## O=C(c1cc(Cc2n[nH]c(=O)c3ccccc23)ccc1F)N1CCN(C(=O)C2CC2)CC1 [Olaparib]
[1]
  TGI ±SEM (100% cell growth inhibition, cytostatic): >100 µM
  GI50: 32 ± 4.64 µM
[1]; OVCAR-3, 48 h treatment, MTT
  IC50: > 100 µM
[2]; UWB1.289, 3 μM
  PRI (Proliferation Rate Index): 1.98 *
  SCE/Chromosome ± SEM: 0.90 ± 0.06
  SCEs/Metaphase ± SEM: 66.78 ± 4.45
[4]; Donor 1 PBMCs, 3 μM
  PRI (Proliferation Rate Index): 2.60
  SCE/Chromosome ± SEM: 0.44 ± 0.02
  SCEs/Metaphase ± SEM: 20.43 ± 1.1
[4]; Donor 2 PBMCs, 3 μM
  PRI (Proliferation Rate Index): 2.56
  SCE/Chromosome ± SEM: 0.47 ± 0.03
  SCEs/Metaphase ± SEM: 21.6 ± 1.4
[4]; Donor 3 PBMCs, 3 μM
  PRI (Proliferation Rate Index): 2.47
  SCE/Chromosome ± SEM: 0.52 ± 0.03
  SCEs/Metaphase ± SEM: 23.87 ± 1.5
[4]; Donor 4 PBMCs, 3 μM
  PRI (Proliferation Rate Index): 2.76
  SCE/Chromosome ± SEM: 0.48 ± 0.03
  SCEs/Metaphase ± SEM: 21.92 ± 1.2
[4]; Donor 5 PBMCs, 3 μM
  PRI (Proliferation Rate Index): 2.34
  SCE/Chromosome ± SEM: 0.55 ± 0.04
  SCEs/Metaphase ± SEM: 25.32 ± 1.6
[4]; mean of 5 donors' PBMCs, 3 μM
  Mean PRI ± SD: 2.546 ± 0.16
  Mean SCE/Chromosome ± SD: 0.66 ± 0.04
  Mean SCEs/metaphase Mean ± SD: 22.63 ± 1.95
[5]
  TGI ±SEM (100% cell growth inhibition, cytostatic): >100 µM
  GI50: > 100 µM
[5]; SKOV-3, 48 h treatment, MTT
  IC50: > 100 µM
[6]
  TGI ±SEM (100% cell growth inhibition, cytostatic): 85 ± 9.34 µM
  GI50: 14 ± 1.78 µM
[6]; UWB1.289, 48 h treatment, MTT
  IC50: > 100 µM
[7]
  TGI ±SEM (100% cell growth inhibition, cytostatic): >100 µM
  GI50: > 100 µM
[8]
  IC50 at 48 h: > 100 µM
